Laboratory results as given in US20190308956A1, “PIPERAZINE DERIVATIVES AS ANTIVIRAL AGENTS WITH INCREASED THERAPEUTIC ACTIVITY” (SERVICIO ANDALUZ DE SALUD, priority 2016, published 2019).

Legend:
HAdV5-GFP [1] = experiment: Plaque assay, HAdV5-GFP in 293β5 cells; assay type: cell-based
Method: 1.5. Plaque assay. For low MOI infections, active compounds were further evaluated in a plaque assay. 293β5 cells were seeded in 6-well plates at 4×10^5 cells per well in duplicate for each condition. When cells reached 80-90% confluency, they were infected with HAdV5-GFP or HAdV16-GFP (0.06 vp/cell) and rocked for 2 h at 37° C. The inoculum was removed and the cells were washed once with PBS. The cells were then carefully overlaid with 4 ml/well of equal parts of 1.6% […] Difco Agar Noble (Becton, Dickinson & Co, Sparks, MD) and 2× EMEM (BioWhittaker) supplemented with 2x penicillin/streptomycin, 2× L-glutamine and 10% FBS. The mixture also contained compound in concentrations ranging from 5 to 1 μM. Following incubation for 7 days at 37° C., plates were scanned with a Typhoon 9410 imager (GE Healthcare Life Sciences), and plaques were quantified with ImageJ.43
For the plaque assay 293β5 cells were infected with HAdV5-GFP (in the presence of compound at 10 μM) (Table 2). From this generation of compounds, our primary screening identified 4 compounds (12, 13, 22 and 25) that inhibited HAdV5-GFP plaque formation >90% compared to a control with the same volume of DMSO.

HAdV5-GFP [2] = experiment: Entry assay, HAdV5-GFP in A549 cells (GFP expression); assay type: cell-based
Method: 1.3. Entry assay. An initial rapid screening was performed using human A549 epithelial cells (3×10^5 cells/well in Corning black wall, clear bottom 96-well plates) infected with HAdV5-GFP (2,000 vp/cell) in the presence of 50 μM of the candidate antiviral compounds. Virus was preincubated with the compounds (individual and mixed) for 45 minutes at 4° C., and then added to cells. A standard infection curve was generated in parallel by infecting cells in the absence of compounds using serial two-fold dilutions of virus. All reactions were done in triplicate. Cells, virus and compounds were incubated for 48 h at 37° C. and 5% CO2. Infection, as measured by HAdV-mediated GFP expression, was analyzed using a Typhoon 9410 imager (GE Healthcare Life Sciences), and quantified with ImageQuantTL (GE Healthcare Life Sciences).

A549 cells = experiment: Cytotoxicity assay (alamarBlue cell viability); assay type: cell-based, Human
Method: 1.4. Cytotoxicity assay. The cytotoxicity of the compounds was measured using the AlarmBlue cell viability assay (Invitrogen) according to the manufacturer's instructions. Actively dividing A549 cells were incubated with compounds for 48 h. After the incubation the alamarBlue reagent was added to the cells ( 1/10th alamarBlue reagent in culture medium) for an extra 4 h. The 50% cell cytotoxic concentration (CC50) of the molecules was calculated according to Cheng et al.42 The selectivity index (SI) was evaluated as the ratio of CC50 to IC50, where the IC50 is defined as the concentration of compound that inhibits HAdV infection by 50%.

wild-type HAdV5 = experiment: Virus yield reduction (burst assay, TCID50), HAdV5; assay type: cell-based
Method: 1.8. Virus yield reduction. The effect of the active compounds on virus production was evaluated in a burst assay A549 cells were infected with wild-type HAdV5 or HAdV16 (MOI 100) in the presence or absence of 50 μM compounds. After 48 h, cells were harvested and subjected to three rounds of freeze/thaw. Serial dilutions of clarified lysates were titrated on A549 cells and TCID50 values were calculated using an endpoint dilution method.46

[3] = tested on: Acinetobacter baumannii strains resistant to colistine; experiment: Screening of inhibition of bacterial growth at 50 μM; assay type: cell-based; settings: 5×10^5 CFU/ml, 18 h; for Screening, growth inhibition Ab 11: strain Ab 11, 50 μM; for Screening, growth inhibition Ab 14: strain Ab 14, 50 μM; for Screening, growth inhibition Ab 17: strain Ab 17, 50 μM; for Screening, growth inhibition Ab 21R: strain Ab 21R; for Screening, growth inhibition Ab 21R / Screening, growth inhibition Ab 22P: 50 μM; for Screening, growth inhibition Ab 22P: strain Ab 22P; for Screening, growth inhibition Ab 24: strain Ab 24, 50 μM
Text: (§1) All of the strains used were Acinetobacter baumannii strains resistant to colistine: Resistance (R)≥4 Sensibility (S)≤2—All of these strains have been disclosed in Valencia R, Arroyo L A, Conde M, Aldana J M, Torres M J, Fernandez-Cuenca F, et al. Nosocomial outbreak of infection with pan-drug-resistant Acinetobacter baumannii in a tertiary care university hospital. Infection control and hospital epidemiology. 2009; 30(3):257-63. The specific strains used were the following: 1, 10, 11, 14, 16, 17, 19, 20, 21R, 22P, 24, 99 and 113.
Evaluation of the inhibition of the bacterial growth of the 4 families of piperazines derivatives was performed by using a final concentration of 50 μM of each piperazine derivative in a concentration of 5×10^5 CFU/ml of each strain of A. baumannii in 96-well plates.
These plates were incubated for 18 hours at 37° C.

[4] = tested on: Acinetobacter baumannii strains resistant to colistine; experiment: Minimal inhibitory concentration (MIC), microdilution in MHBII; assay type: cell-based; settings: 5×10^5 CFU/ml, 18 h; for CMI (MIC) Ab 11: strain Ab 11, MHBII; for CMI (MIC) Ab 14: strain Ab 14, MHBII; for CMI (MIC) Ab 17: strain Ab 17, MHBII; for CMI (MIC) Ab 21R: strain Ab 21R; for CMI (MIC) Ab 21R / CMI (MIC) Ab 22P: MHBII; for CMI (MIC) Ab 22P: strain Ab 22P; for CMI (MIC) Ab 24: strain Ab 24, MHBII
Text: as §1
Microdilution in cell medium Mueller Hinton Broth II (MHBII). This technique was carried out solely in those piperazines which presented inhibitory activity in the screening study.
We used decreasing concentrations of each piperazine derivative (from 50 μM -0.05 μM) in a concentration of 5×10^5 CFU/ml of each strain of A. baumannii in 96 well plates. These plates were incubated for 18 hours at a temperature 37° C.

| Structure (SMILES) | Inhibition assay in plaque (HAdV5-GFP [1]) | Starting Inhibition assay (HAdV5-GFP [2]) | CC50 (A549 cells) | YIELD REDUCTION (wild-type HAdV5) | Screening, growth inhibition Ab 11 [3] | Screening, growth inhibition Ab 14 [3] | Screening, growth inhibition Ab 17 [3] | Screening, growth inhibition Ab 21R [3] | Screening, growth inhibition Ab 22P [3] | Screening, growth inhibition Ab 24 [3] | CMI (MIC) Ab 11 [4] | CMI (MIC) Ab 14 [4] | CMI (MIC) Ab 17 [4] | CMI (MIC) Ab 21R [4] | CMI (MIC) Ab 22P [4] | CMI (MIC) Ab 24 [4] | IC50 (HAdV5-GFP [1]; read-out: IC50 plaque) |
| --- | --- | --- | --- | --- | --- | --- | --- | --- | --- | --- | --- | --- | --- | --- | --- | --- | --- |
| CC1CN(C(=O)OC(C)(C)C)CCN1C(=S)Nc1ccc(F)cc1 (centres unmarked) [Vip 585] | 92.91 ± 3.82 | 75.54 ± 13.76 | 200 µM | 12.08 ± 2.78 |  |  |  |  |  |  |  |  |  |  |  |  |  |
| CC1CN(C(=O)OC(C)(C)C)CCN1C(=S)Nc1ccc(Cl)cc1 (centres unmarked) [Vip 580] | 73.43 ± 4.19 | 64.11 ± 16.81 | 167 µM |  | <50 µM | <50 µM | <50 µM | <50 µM | <50 µM | <50 µM | 50 µM | 50 µM | 50 µM | 50 µM | 50 µM | 50 µM |  |
| CC1CN(C(=O)Cc2ccccc2)CCN1C(=S)Nc1ccc(F)cc1 (centres unmarked) [Vip 638] | 28.90 ± 23.21 | 72.06 ± 14.91 |  |  |  |  |  |  |  | <50 µM |  |  |  |  |  | 50 µM |  |
| COc1ccc(NC(=S)N2CCN(C(=O)OC(C)(C)C)CC2C)cc1 (centres unmarked) [Vip 590] | 36.55 ± 30.13 | 62.79 ± 17.03 |  |  |  | <50 µM |  |  |  |  |  | >50 µM |  |  |  |  |  |
| Cc1ccc(NC(=S)N2CCN(C(=O)Cc3ccccc3)CC2C)cc1 (centres unmarked) [Vip 636] | 13.79 ± 25.70 | 73.72 ± 14.39 |  |  | <50 µM |  | <50 µM | <50 µM |  | <50 µM | 50 µM |  | 25 µM | 25 µM |  | 50 µM |  |
| COc1ccc(NC(=S)N2CCN(C(=O)Cc3ccccc3)CC2C)cc1 (centres unmarked) [Vip 637] | 29.36 ± 36.56 | 61.99 ± 17.15 |  |  |  |  | <50 µM |  |  | <50 µM |  |  | 50 µM |  |  | >50 µM |  |
| CC1CN(C(=O)Cc2ccccc2)CCN1C(=S)Nc1ccc(C(F)(F)F)cc1 (centres unmarked) [Vip 633] | 45.36 ± 16.56 | 43.12 ± 17.16 |  |  | <50 µM |  | <50 µM |  |  | <50 µM | 25 µM |  | 25 µM |  |  | 50 µM |  |
| CC1CN(C(=O)Cc2ccccc2)CCN1C(=S)Nc1ccc(C#N)cc1 (centres unmarked) [Vip 635] | 98.36 ± 2.13 | 60.06 ± 17.39 | 175 µM | 18.39 ± 5.44 | <50 µM |  | <50 µM | <50 µM |  | <50 µM | 50 µM |  | 50 µM | 50 µM |  | 50 µM |  |
| CC1CN(C(=O)Cc2ccccc2)CCN1C(=S)Nc1ccc([N+](=O)[O-])cc1 (centres unmarked) [Vip 628] | 98.21 ± 3.57 | 60.79 ± 17.31 | 210 µM | 25.59 ± 10.45 | <50 µM |  | <50 µM |  |  | <50 µM | 50 µM |  | 25 µM |  |  | 50 µM | 2.04 µM |
| CC1CN(C(=O)Cc2ccccc2)CCN1C(=S)Nc1cc(C(F)(F)F)cc(C(F)(F)F)c1 (centres unmarked) [Vip 634] | 99.50 ± 1.58 | 94.46 ± 3.87 | 130 µM | 33.42 ± 10.16 | <50 µM | <50 µM | <50 µM | <50 µM |  | <50 µM | 6.25 µM | 3.12 µM | 3.12 µM | 3.12 µM |  | 6.25 µM |  |
| CC1CN(C(=O)Cc2ccccc2)CCN1C(=S)Nc1ccc(Cl)cc1 (centres unmarked) [Vip 629] | 84.56 ± 15.72 | 59.51 ± 17.45 | 175 µM |  | <50 µM | <50 µM | <50 µM | <50 µM |  | <50 µM | 25 µM | 25 µM | 25 µM | 50 µM |  | 50 µM |  |
| CC1CN(C(=O)OC(C)(C)C)CCN1C(=S)Nc1cc(C(F)(F)F)cc(C(F)(F)F)c1 (centres unmarked) [Vip 592] | 11.11 ± 19.25 | 71.76 ± 15.00 |  |  |  | <50 µM |  |  |  |  |  | 3.12 µM |  |  |  |  |  |
| Cc1ccc(NC(=S)N2CCN(C(=O)OC(C)(C)C)CC2C)cc1 (centres unmarked) [Vip 591] | 49.11 ± 4.73 | 56.61 ± 17.69 |  |  |  | <50 µM | <50 µM | <50 µM |  |  |  | >50 µM | 50 µM | 50 µM |  |  |  |
| CC1CN(C(=O)OC(C)(C)C)CCN1C(=S)Nc1ccc(C#N)cc1 (centres unmarked) [Vip 584] | 88.91 ± 15.92 | 58.11 ± 25.72 | 175 µM |  | <50 µM | <50 µM | <50 µM | <50 µM | <50 µM | <50 µM | 50 µM | 50 µM | 25 µM | 50 µM | 50 µM | 50 µM |  |
